Laboratory results published in ChEMBL document CHEMBL1177756, “Design and synthesis of 1,4,5,6-tetrahydropyrrolo[3,4-c]pyrazoles and pyrazolo[3,4-b]pyridines for Aurora-A kinase inhibitors” (Bioorg Med Chem Lett, 2010).

Key:
Format in all cases: functional, cell-based
[1] = tested on: A549; assay: Cytotoxicity against human A549 cells after 48 hrs by MTT assay; conditions: A549, 48 h
[2] = tested on: HCT-116; assay: Cytotoxicity against human HCT116 cells after 48 hrs by MTT assay; conditions: HCT-116, 48 h
[3] = tested on: A2780; assay: Cytotoxicity against human A2780 cells after 48 hrs by MTT assay; conditions: A2780, 48 h

Row | SMILES | IC50 [1] [µM] | IC50 [2] [µM] | IC50 [3] [µM]
1 | Cc1ccc(C(=O)Nc2n[nH]c3c2CN(C(=O)c2ccccn2)C3)cc1 | > 200 | > 200 | > 200
2 | CC(=O)N1Cc2[nH]nc(NC(=O)c3ccc4ccccc4c3)c2C1 | > 200 | > 200 | > 200
3 | Cc1ccccc1C(=O)Nc1n[nH]c2ncc(Br)cc12 | > 200 | 51.5 | > 200
4 | COc1cc(OC)cc(C(=O)Nc2n[nH]c3c2CN(C(=O)c2ccccn2)C3)c1 | > 200 | 236 | > 200
5 | O=C(Nc1n[nH]c2c1CN(C(=O)[C@@H](O)c1ccccc1)C2)c1ccc2c(c1)OCO2 | 84 | 135 | > 200
6 | CO[C@H](C(=O)N1Cc2[nH]nc(NC(=O)c3ccc4c(c3)OCO4)c2C1)c1ccccc1 | > 200 | > 200 | > 200
7 | O=C(Nc1n[nH]c2c1CN(C(=O)c1ccccn1)C2)c1ccc2c(c1)OCO2 | 118 | > 200 | > 200
8 | O=C(Nc1n[nH]c2ncc(Br)cc12)c1cc(Cl)cc(Cl)c1 | > 200 | 49.2 | > 200
9 | COc1cc(OC)cc(C(=O)Nc2n[nH]c3ncc(Br)cc23)c1 | 53.7 | 19.3 | 37.9
10 | CC(=O)c1ncccc1N1Cc2[nH]nc(NC(=O)c3ccc4c(c3)OCO4)c2C1 | > 200 | > 200 | > 200
11 | CO[C@H](C(=O)N1Cc2[nH]nc(NC(=O)c3ccc4ccccc4c3)c2C1)c1ccccc1 | 16 | 38 | 23
12 | O=C(Nc1n[nH]c2ncc(Br)cc12)c1ccc(C(F)(F)F)cc1 | > 200 | 21.9 | > 200
13 | O=C(Nc1n[nH]c2ncc(Br)cc12)c1ccc(F)cc1 | > 200 | 44.1 | 50
14 | COc1ccc(C(=O)Nc2n[nH]c3ncc(Br)cc23)cc1 | > 200 | 24.9 | > 200
15 | COc1ccccc1C(=O)Nc1n[nH]c2ncc(Br)cc12 | > 200 | 15.6 | 27
16 | O=C(Nc1n[nH]c2ncc(Br)cc12)c1ccccc1C(F)(F)F | 75.1 | 40.3 | > 200
17 | Cc1ccc(C(=O)Nc2n[nH]c3c2CN(C(=O)[C@@H](O)c2ccccc2)C3)cc1 | 42 | 13 | 82
18 | CO[C@H](C(=O)N1Cc2[nH]nc(NC(=O)c3ccco3)c2C1)c1ccccc1 | > 200 | > 200 | > 200
19 | Cc1ccc(C(=O)N2Cc3[nH]nc(NC(=O)c4ccco4)c3C2)cc1 | > 200 | > 200 | > 200
20 | CC(=O)O[C@H](C(=O)N1Cc2[nH]nc(NC(=O)c3cc4c(c(OCc5ccccc5)c3)OCO4)c2C1)c1ccccc1 | > 200 | > 200 | > 200
21 | O=C(Nc1n[nH]c2c1CN(C(=O)[C@@H](O)c1ccccc1)C2)c1ccco1 | 25 | 4 | 35

Row | SMILES | IC50 [1] [µM] | IC50 [2] [µM] | IC50 [3] [µM]
22 | O=C(Nc1n[nH]c2ncc(Br)cc12)c1ccccc1Cl | > 200 | 32.3 | 46.7
23 | COc1ccc(C(=O)Nc2n[nH]c3c2CN(C(=O)c2ccccn2)C3)cc1 | > 200 | > 200 | > 200
24 | COc1cc(OC)cc(C(=O)Nc2n[nH]c3c2CN(C(=O)[C@@H](OC)c2ccccc2)C3)c1 | 99 | 103 | > 200
25 | Cc1ccc(C(=O)Nc2n[nH]c3ncc(Br)cc23)cc1 | > 200 | 39.8 | > 200
26 | Cc1cccc(C(=O)Nc2n[nH]c3ncc(Br)cc23)c1 | > 200 | 25.5 | 49.9
27 | O=C(Nc1n[nH]c2ncc(Br)cc12)c1ccc(Cl)cc1 | 51.4 | 34.7 | 51.6
28 | O=C(Nc1n[nH]c2ncc(Br)cc12)c1ccco1 | 61.9 | 43.5 | 42
29 | O=C(Cc1ccc(Br)cc1)Nc1n[nH]c2ncc(Br)cc12 | 43.1 | 31.7 | 22.8
30 | COc1cc(OC)cc(C(=O)Nc2n[nH]c3c2CN(C(=O)[C@@H](O)c2ccccc2)C3)c1 | 76 | 143 | > 200
31 | COc1cc(OC)cc(C(=O)Nc2n[nH]c3c2CN(c2cccnc2C(C)=O)C3)c1 | 161 | 107 | > 200
32 | CC(=O)c1ncccc1N1Cc2[nH]nc(NC(=O)c3ccccc3)c2C1 | 175 | 168 | > 200
33 | CO[C@H](C(=O)N1Cc2[nH]nc(NC(=O)c3cc4c(c(OCc5ccccc5)c3)OCO4)c2C1)c1ccccc1 | > 200 | > 200 | > 200
34 | Cc1cccnc1C(=O)Nc1n[nH]c2ncc(Br)cc12 | > 200 | 23 | > 200
35 | O=C(Nc1n[nH]c2ncc(Br)cc12)c1ccccn1 | 45.2 | 14.3 | 46.5
36 | CO[C@H](C(=O)N1Cc2[nH]nc(NC(=O)c3ccccc3)c2C1)c1ccccc1 | > 200 | 26 | > 200
37 | O=C(Nc1n[nH]c2c1CN(C(=O)c1ccco1)C2)c1ccc2ccccc2c1 | 34 | 45 | 54
38 | Cc1ccc(C(=O)N2Cc3[nH]nc(NC(=O)c4ccc5ccccc5c4)c3C2)cc1 | > 200 | > 200 | > 200
39 | O=C(Nc1n[nH]c2c1CN(C(=O)c1ccccn1)C2)c1cc2c(c(OCc3ccccc3)c1)OCO2 | > 200 | 104 | > 200
40 | COc1ccc(C(=O)Nc2n[nH]c3c2CN(C(=O)[C@@H](OC)c2ccccc2)C3)cc1 | 72 | 207 | > 200
41 | CO[C@H](C(=O)N1Cc2[nH]nc(NC(=O)c3ccc(N4CCN(C)CC4)cc3)c2C1)c1ccccc1 | 43 | 13 | 11
